From paper PMC11443518, “Undescribed Amaryllidaceae Alkaloids from Zephyranthes citrina and Their Cytotoxicity” (Journal of Natural Products, 2024) come the findings set out here.

Experiment [1] relates to HT-29 (colorectal adenocarcinoma). The experiment is described as follows: WST-1 cell proliferation assay, cytotoxicity screening. Conditions: Homo sapiens, read-out: growth percent (GP) HT-29. Type of experiment: cell-based. The source says: (§1) Selected human tumor and nontumor cell lines Jurkat (acute T-cell leukemia), MOLT-4 (acute lymphoblastic leukemia), A549 (lung carcinoma), HT-29 (colorectal adenocarcinoma), PANC-1 (pancreas epithelioid carcinoma), A2780 (ovarian carcinoma), HeLa (cervix adenocarcinoma), MCF-7 (breast adenocarcinoma), SAOS-2 (osteosarcoma) and MRC-5 (nontumor lung fibroblasts) were purchased from European Collection of Authenticated Cell Cultures (ECACC, Salisbury, UK) and cultured according to the provider’s culture method guidelines. […] The cells in low passage number (nontumor primary cell line MRC-5 was used for a maximum of 10 passages and cancer cell lines were used for a maximum of 20 passages) and in an exponential growth phase were used for this study.
(§2) Each cell line was seeded at a previously established optimal density (1 × 10^3 to 50 × 10^3 cells per well) in a 96-well plate (TPP, Trasadingen, Switzerland) and cells were allowed to settle overnight. During screening tests for cytotoxicity, cells were treated with alkaloids at a final concentration of 10 μM for 48 h. Doxorubicin (Sigma-Aldrich, St. Louis, USA), at a concentration of 1 μM, was used as a positive control. At the end of the culture period, the WST-1 proliferation assay (Roche, Basel, Switzerland) was performed according to the manufacturer’s protocol. The absorbance was determined using a Tecan Spark microplate reader (Tecan, Männedorf, Switzerland). Each value is the mean of three independent experiments and represents the percentage of the proliferation of control, nontreated cells (100%). The growth percent (GP) value as the mean of the proliferation decrease was calculated for each cell line and derivative tested.

Experiment [2] has as its system MRC-5 (nontumor lung fibroblasts). Described as above. It is filed as cell-based. The note with it: Homo sapiens, read-out: growth percent (GP) MRC-5.
From the text: as §1, §2

Experiment [3] relates to Jurkat (acute T-cell leukemia). Described as above. Type of experiment: cell-based. Conditions: Homo sapiens, 48 h, read-out: growth percent (GP) Jurkat.
From the text: as §1, §2

Experiment [4] concerns A2780 (ovarian carcinoma). The description is as above. It is filed as cell-based. Conditions: Homo sapiens, read-out: growth percent (GP) A2780.
From the text: as §1, §2

Experiment [5] relates to SAOS-2 (osteosarcoma). The description is as above. Type of experiment: cell-based. Conditions: Homo sapiens, read-out: growth percent (GP) SAOS-2.
From the text: as §1, §2

The test system of experiment [6] is A549 (lung carcinoma). The experiment is described as above. Type of experiment: cell-based. Conditions: Homo sapiens, read-out: growth percent (GP) A549.
From the text: as §1, §2

In experiment [7] the test system is PANC-1 (pancreas epithelioid carcinoma). Described as above. It is filed as cell-based. The note with it: Homo sapiens, read-out: growth percent (GP) PANC-1.
From the text: as §1, §2

In experiment [8] the test system is HeLa (cervix adenocarcinoma). The experiment is described as above. Conditions: Homo sapiens, 48 h, read-out: growth percent (GP) HeLa. Type of experiment: cell-based.
From the text: as §1, §2

Experiment [9] deals with nine human tumor and one nontumor cell lines. In words: Cytotoxicity screening across the whole panel of cell lines. Type of experiment: cell-based. The note with it: for activity at 10 µM: Homo sapiens, read-out: GP value across the tested cell lines.
From the text: Concerning the cytotoxicity of alkaloids isolated from Z. citrina, initially, Prakash and Vedanayaki investigated the MeOH extract of the bulbs for its in vitro cytotoxic activity using the MTT assay against three human cancer cell lines from different tissue origins: cervical cancer (HeLa), breast cancer (MCF-7), and oral squamous carcinoma (SCC-9). […] In this context, and to assess potential negative effects on human cell cultures, compounds 1, and 3–27 were screened in our study for cytotoxicity using a 10 μM single-dose regimen. The results were compared with those using the clinically approved antineoplastic agent doxorubicin at 1 μM. The effect on cell growth was investigated on nine human tumor and one nontumor cell lines, namely Jurkat (acute T-cell leukemia), MOLT-4 (acute lymphoblastic leukemia), A549 (lung carcinoma), HT-29 (colorectal adenocarcinoma), PANC-1 (pancreas epithelioid carcinoma), A2780 (ovarian carcinoma), HeLa (cervix adenocarcinoma), MCF-7 (breast adenocarcinoma), SAOS-2 (osteosarcoma) and MRC-5 (nontumor lung fibroblasts). […] No toxicity is valuable information, especially for compound 18, as it is a potent inhibitor of hAChE and hBChE.[27]
Selected human tumor and nontumor cell lines Jurkat (acute T-cell leukemia), MOLT-4 (acute lymphoblastic leukemia), A549 (lung carcinoma), HT-29 (colorectal adenocarcinoma), PANC-1 (pancreas epithelioid carcinoma), A2780 (ovarian carcinoma), HeLa (cervix adenocarcinoma), MCF-7 (breast adenocarcinoma), SAOS-2 (osteosarcoma) and MRC-5 (nontumor lung fibroblasts) were purchased from European Collection of Authenticated Cell Cultures (ECACC, Salisbury, UK) and cultured according to the provider’s culture method guidelines. All cell lines were maintained at 37 °C in a humidified 5% carbon dioxide and 95% air incubator. The cells in low passage number (nontumor primary cell line MRC-5 was used for a maximum of 10 passages and cancer cell lines were used for a maximum of 20 passages) and in an exponential growth phase were used for this study.
as §2

Experiment [10] relates to MOLT-4 (acute lymphoblastic leukemia). The experiment is described as follows: WST-1 cell proliferation assay, cytotoxicity screening. Conditions: for activity at 10 µM: Homo sapiens, read-out: growth percent (GP) MOLT-4. It is filed as cell-based, human.
From the text: as §1, §2

Experiment [11] has as its system MCF-7 (breast adenocarcinoma). The description is as above. Conditions: for activity at 10 µM: Homo sapiens, read-out: growth percent (GP) MCF-7. It is filed as cell-based, human.
From the text: as §1, §2

The mark [12] stands for this setting: 10 μM single dose, 48-h interval, all tested cell lines.
Where [13] appears, read: c = 10 μM, 48 h, % of proliferation of nontreated control.
[14] abbreviates: c = 10 μM, % of proliferation of nontreated control.

Each structure is given as a SMILES string. Read-outs that look alike come from different tables or passages of the source. Bounds are passed on as bounds.

As to `COc1cc2c(c(O)c1OC)[C@@]13CC[C@H](OC)C[C@@H]1N(CC3)C2O` (stereo partly drawn) [Compound 10, zephyranine F], the activity at 10 µM in experiment [1] (HT-29, 48 h) amounted to 88%; in experiment [2] (MRC5, 48 h), 97%; in [3], 89%; in experiment [4] (A2780, 48 h), 113%; in experiment [5] (SAOS-2, 48 h), 73%; in [6] (A549, 48 h), 81%. Besides, the activity at 10 µM in [7] (PANC-1, 48 h) was 77%; in experiment [8] it was 82%; in experiment [9] (48 h), > 50%; in experiment [10] (MOLT-4, 48 h), 78%; in [11] (MCF7, 48 h), 99%.

As to `COc1cc2c(cc1OC)[C@@]13CC[C@@H](O)C[C@@H]1N(CC3)C2` [Compound 11], the activity at 10 µM was 97% in experiment [1] (HT-29, 48 h); 104% in [2] (MRC5, 48 h); 99% in experiment [3]; 107% in [4] (A2780, 48 h); 97% in [5] (SAOS-2, 48 h); 88% in experiment [6] (A549, 48 h). The activity at 10 µM in experiment [7] (PANC-1, 48 h) is 100%; in experiment [8], 98%; in experiment [9] (48 h), > 50%; in [10] (MOLT-4, 48 h), 95%; in experiment [11] (MCF7, 48 h), 104%.

Take `O[C@@H]1C=C[C@]23CCN(Cc4cc5c(cc42)OCO5)[C@H]3C1` [Compound 14]: the activity at 10 µM in [1] (HT-29, 48 h) came out at 84%; in [2] (MRC5, 48 h) it was 83%; in experiment [3], 91%; in experiment [4] (A2780, 48 h), 98%; in experiment [5] (SAOS-2, 48 h), 79%; in experiment [6] (A549, 48 h) it was 80%. The activity at 10 µM is 84% in [7] (PANC-1, 48 h); 100% in experiment [8]; > 50% in [9] (48 h); 92% in experiment [10] (MOLT-4, 48 h); 79% in [11] (MCF7, 48 h).

`COc1cc2c(cc1OC)[C@@]13C=CC(O)C[C@@H]1N(CC3)C2` (stereo partly drawn) [Compound 15, maritidine]: the activity at 10 µM is 93% in [1] (HT-29, 48 h); 104% in experiment [2] (MRC5, 48 h); 104% in [3]; 94% in [4] (A2780, 48 h); 94% in experiment [5] (SAOS-2, 48 h); 95% in [6] (A549, 48 h). The activity at 10 µM in experiment [7] (PANC-1, 48 h) was 91%; in [8], 101%; in experiment [9] (48 h), > 50%; in [10] (MOLT-4, 48 h), 100%; in experiment [11] (MCF7, 48 h), 98%. In addition, the “GP value across the tested cell lines” value in experiment [9] (setting [12]) is listed as “lack of inhibitory activity”.

Turning to `COc1cc2c(cc1O)CN1CC[C@@]23C=CC(O)C[C@H]13` (stereo partly drawn) [Compound 16], the activity at 10 µM was found to be 103% in [1] (HT-29, 48 h); 97% in experiment [2] (MRC5, 48 h); 102% in [3]; 101% in experiment [4] (A2780, 48 h); 98% in experiment [5] (SAOS-2, 48 h); 106% in [6] (A549, 48 h). Also, the activity at 10 µM in experiment [7] (PANC-1, 48 h) was 101%; in experiment [8], 114%; in experiment [9] (48 h), > 50%; in experiment [10] (MOLT-4, 48 h), 110%; in experiment [11] (MCF7, 48 h) it was 105%.

For `COC1C=C[C@@]23CCN(Cc4cc5c(cc42)OCO5)[C@@H]3C1` (stereo partly drawn) [Compound 17], the activity at 10 µM in experiment [1] (HT-29, 48 h) came out at 71%; in experiment [2] (MRC5, 48 h), 82%; in experiment [3], 52%; in [4] (A2780, 48 h) it was 55%; in [5] (SAOS-2, 48 h), 76%; in experiment [6] (A549, 48 h), 60%. Moreover, the activity at 10 µM in experiment [7] (PANC-1, 48 h) is 77%; in [8] it was 75%; in experiment [9] (48 h) it was > 50%; in [10] (MOLT-4, 48 h) it was 32%; in experiment [11] (MCF7, 48 h), 49%. For the same molecule, the “growth percent (GP) MOLT-4” value in experiment [10] (setting [13]) is “slight inhibition of growth”. In addition, in experiment [11] (setting [13]), the “growth percent (GP) MCF-7” value is “slight inhibition of growth”.

For the molecule `COc1cc(-c2cccc3c2N(C)CC3)c(CN2CC[C@@]34C=C[C@H](O)C[C@@H]3Oc3c(OC)ccc(c34)C2)c(OC)c1OC` [Compound 18, narcielline], the activity at 10 µM was determined as 106% in experiment [1] (HT-29, 48 h); 111% in experiment [2] (MRC5, 48 h); 103% in experiment [3]; 88% in [4] (A2780, 48 h); 106% in experiment [5] (SAOS-2, 48 h); 110% in experiment [6] (A549, 48 h). The activity at 10 µM in experiment [7] (PANC-1, 48 h) is 111%; in experiment [8], 90%; in [9] (48 h) it was > 50%; in experiment [10] (MOLT-4, 48 h), 95%; in experiment [11] (MCF7, 48 h) it was 115%.

`COc1cc2c(c(OC)c1OC)[C@@H](O)O[C@@H]1CC=C3CCN(C)[C@H]3[C@H]21` [Compound 21]: the activity at 10 µM is 83% in [1] (HT-29, c = 10 μM, 48 h, % of proliferation of nontreated control); 101% in [2] (MRC5, c = 10 μM, 48 h, % of proliferation of nontreated control); 91% in experiment [3] (setting [14]); 95% in experiment [4] (A2780, c = 10 μM, 48 h, % of proliferation of nontreated control); 105% in experiment [5] (SAOS-2, c = 10 μM, 48 h, % of proliferation of nontreated control); 101% in [6] (A549, c = 10 μM, 48 h, % of proliferation of nontreated control). The activity at 10 µM in experiment [7] (PANC-1, c = 10 μM, 48 h, % of proliferation of nontreated control) is 90%; in [8] (setting [14]), 112%; in [9] (setting [12]), > 50%; in experiment [10] (MOLT-4, c = 10 μM, 48 h, % of proliferation of nontreated control), 93%; in experiment [11] (MCF7, c = 10 μM, 48 h, % of proliferation of nontreated control), 92%.

Take `COc1cc2c(cc1O)C(=O)O[C@@H]1CC=C3CCN(C)[C@H]3[C@H]21` [Compound 22]: the activity at 10 µM in experiment [1] (HT-29, 48 h) was determined as 106%; in experiment [2] (MRC5, 48 h) it was 93%; in [3] it was 100%; in experiment [4] (A2780, 48 h), 94%; in experiment [5] (SAOS-2, 48 h) it was 103%; in experiment [6] (A549, 48 h), 109%. For the same molecule, the activity at 10 µM is 92% in experiment [7] (PANC-1, 48 h); 96% in experiment [8]; > 50% in experiment [9] (48 h); 100% in [10] (MOLT-4, 48 h); 102% in experiment [11] (MCF7, 48 h).
